Laboratory results taken from paper PMC13110364, “Design, Synthesis, and Biological Evaluation of Novel Triazine‐Based Dual Histone Deacetylase/phosphatidylinositol 3‐kinase Inhibitors for Breast Cancer Therapy” (Chemmedchem, 2026).

Columns and labels:
[1] = system: JIMT1 breast cancer cells; experiment: MTS cell viability assay, JIMT1; format: cell-based; details: Homo sapiens, JIMT-1, 72 h treatment
Method: (§1) The cell viability effects of compounds 5a–5f were assessed in LY2, JIMT1, and MDA‐MB‐231 breast cancer cell lines using the 3‐(4,5‐dimethylthiazol‐2‐yl)‐5‐(3‐carboxymethoxyphenyl)‐2‐(4‐sulfophenyl)‐2H‐tetrazolium (MTS) assay. The MTS assay measures metabolic viability and serves as a first‐pass screen.
(§2) JIMT‐1 (DSMZ ACC 589) and MDA‐MB‐231 (ATCC HTB‐26) breast cancer cell lines were maintained in Dulbecco's Modified Eagle Medium (DMEM) High Glucose with L‐glutamine (D5796, Sigma) supplemented with 10% fetal calf serum. MCF7‐derivative LY2 breast cancer cells were previously described (REF: PMID: 33420368). LY2 cells were cultured in phenol red‐free MEM (PRF‐MEM; 51 200‐046, Gibco) supplemented with 10% charcoal dextran‐stripped fetal calf serum (CDS‐FCS; F6765, Merck), 2 mmol/L L‐glutamine (G7513, Merck), and 10^−8 mol/L 4‐hydroxytamoxifen (4‐OHT; H7904, Merck). All cell lines were maintained at 37°C in a humidified incubator with 5% CO2 and regularly authenticated and tested for mycoplasma.
(§3) Cell viability was evaluated in response to increasing concentrations of 5a‐5f (0.3, 1, 3, 10, and 30 μM) or vehicle control (0.1% DMSO). LY2, JIMT1, and MDA‐MB‐231 cells were seeded at a density of 2,500 cells per well in 96‐well plates with a total volume of 100 μL per well. Prior to treatment, cells were serum‐deprived for 24 h. Following serum depletion, cells were treated in complete growth medium for 72 h. Cell viability was assessed using the MTS assay (G1111, Promega) according to the manufacturer's instructions. Absorbance was measured at 495 nm using a BioTek Synergy HTX Multi‐Mode Microplate Reader (Agilent). Results were normalized to the vehicle control (DMSO), and the half‐maximal inhibitory concentration (IC50) of the inhibitors was determined by nonlinear regression (curve fit) using a four‐parameter variable slope model.

[2] = system: LY2 breast cancer cells; experiment: MTS cell viability assay, LY2; format: cell-based; details: 72 h treatment
Method: as §1, §2, §3

[3] = system: MDA‐MB‐231 triple‐negative breast cancer cell line; experiment: MTS cell viability assay, MDA-MB-231; format: cell-based; details: Homo sapiens, MDA-MB-231, 72 h, MDA‐MB‐231 cells, 72 h treatment
Method: as §1, §2, §3

[4] = target: HDAC1 (Homo sapiens, UniProt Q13547); design: method as in PMID 32022441; details: cited from earlier work
Sequence of HDAC1 (Q13547 whole entry): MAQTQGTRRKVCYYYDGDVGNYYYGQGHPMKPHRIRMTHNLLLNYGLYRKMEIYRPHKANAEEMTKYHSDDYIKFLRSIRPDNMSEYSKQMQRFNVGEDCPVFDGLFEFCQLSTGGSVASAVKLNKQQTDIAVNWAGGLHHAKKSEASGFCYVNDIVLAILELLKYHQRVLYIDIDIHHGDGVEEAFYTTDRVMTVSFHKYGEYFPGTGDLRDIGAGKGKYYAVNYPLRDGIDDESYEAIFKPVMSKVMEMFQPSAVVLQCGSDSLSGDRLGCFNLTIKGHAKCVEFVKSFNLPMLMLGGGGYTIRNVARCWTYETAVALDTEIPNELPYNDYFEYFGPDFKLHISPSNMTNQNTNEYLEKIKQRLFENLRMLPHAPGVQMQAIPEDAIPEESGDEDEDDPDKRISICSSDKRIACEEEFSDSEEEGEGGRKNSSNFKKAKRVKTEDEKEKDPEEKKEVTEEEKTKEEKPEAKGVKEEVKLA

[5] = target: HDAC4 (Homo sapiens, UniProt P56524); design: method as in PMID 32022441; details: cited from earlier work
Sequence of HDAC4 (P56524 whole entry): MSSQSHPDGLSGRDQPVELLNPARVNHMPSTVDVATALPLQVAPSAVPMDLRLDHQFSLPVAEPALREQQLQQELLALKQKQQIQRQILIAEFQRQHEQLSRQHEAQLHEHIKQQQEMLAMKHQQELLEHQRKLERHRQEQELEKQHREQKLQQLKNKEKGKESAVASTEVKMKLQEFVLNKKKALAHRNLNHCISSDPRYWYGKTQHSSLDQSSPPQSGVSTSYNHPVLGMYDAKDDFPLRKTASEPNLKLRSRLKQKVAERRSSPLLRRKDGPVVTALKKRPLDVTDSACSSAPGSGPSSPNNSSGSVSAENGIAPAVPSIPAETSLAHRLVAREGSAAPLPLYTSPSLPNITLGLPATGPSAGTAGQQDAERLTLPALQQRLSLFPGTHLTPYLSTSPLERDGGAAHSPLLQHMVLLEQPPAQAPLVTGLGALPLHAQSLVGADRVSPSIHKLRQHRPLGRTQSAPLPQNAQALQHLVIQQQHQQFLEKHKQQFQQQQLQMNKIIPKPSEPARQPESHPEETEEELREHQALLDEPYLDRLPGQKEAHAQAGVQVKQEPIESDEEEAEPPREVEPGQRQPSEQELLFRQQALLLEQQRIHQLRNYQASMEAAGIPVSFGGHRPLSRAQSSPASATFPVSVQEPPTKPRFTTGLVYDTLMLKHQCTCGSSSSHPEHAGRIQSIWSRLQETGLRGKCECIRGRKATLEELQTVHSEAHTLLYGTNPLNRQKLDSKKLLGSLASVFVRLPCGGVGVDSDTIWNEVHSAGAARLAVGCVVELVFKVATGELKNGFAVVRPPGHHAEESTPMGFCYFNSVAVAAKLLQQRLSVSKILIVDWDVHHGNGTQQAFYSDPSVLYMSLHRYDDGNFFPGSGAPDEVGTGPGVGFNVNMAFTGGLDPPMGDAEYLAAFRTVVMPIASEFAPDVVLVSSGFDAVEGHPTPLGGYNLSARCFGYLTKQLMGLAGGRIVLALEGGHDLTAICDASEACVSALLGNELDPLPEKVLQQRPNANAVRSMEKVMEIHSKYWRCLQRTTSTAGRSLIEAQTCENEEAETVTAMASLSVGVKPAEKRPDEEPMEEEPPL

[6] = design: method as in PMID 32022441; details: previous studies of the authors ref 25; cited from earlier work
[7] = target: PI3Kα (Homo sapiens, UniProt P42336); design: method as in earlier work; details: cited from earlier work
Sequence of PI3Kα (P42336 whole entry): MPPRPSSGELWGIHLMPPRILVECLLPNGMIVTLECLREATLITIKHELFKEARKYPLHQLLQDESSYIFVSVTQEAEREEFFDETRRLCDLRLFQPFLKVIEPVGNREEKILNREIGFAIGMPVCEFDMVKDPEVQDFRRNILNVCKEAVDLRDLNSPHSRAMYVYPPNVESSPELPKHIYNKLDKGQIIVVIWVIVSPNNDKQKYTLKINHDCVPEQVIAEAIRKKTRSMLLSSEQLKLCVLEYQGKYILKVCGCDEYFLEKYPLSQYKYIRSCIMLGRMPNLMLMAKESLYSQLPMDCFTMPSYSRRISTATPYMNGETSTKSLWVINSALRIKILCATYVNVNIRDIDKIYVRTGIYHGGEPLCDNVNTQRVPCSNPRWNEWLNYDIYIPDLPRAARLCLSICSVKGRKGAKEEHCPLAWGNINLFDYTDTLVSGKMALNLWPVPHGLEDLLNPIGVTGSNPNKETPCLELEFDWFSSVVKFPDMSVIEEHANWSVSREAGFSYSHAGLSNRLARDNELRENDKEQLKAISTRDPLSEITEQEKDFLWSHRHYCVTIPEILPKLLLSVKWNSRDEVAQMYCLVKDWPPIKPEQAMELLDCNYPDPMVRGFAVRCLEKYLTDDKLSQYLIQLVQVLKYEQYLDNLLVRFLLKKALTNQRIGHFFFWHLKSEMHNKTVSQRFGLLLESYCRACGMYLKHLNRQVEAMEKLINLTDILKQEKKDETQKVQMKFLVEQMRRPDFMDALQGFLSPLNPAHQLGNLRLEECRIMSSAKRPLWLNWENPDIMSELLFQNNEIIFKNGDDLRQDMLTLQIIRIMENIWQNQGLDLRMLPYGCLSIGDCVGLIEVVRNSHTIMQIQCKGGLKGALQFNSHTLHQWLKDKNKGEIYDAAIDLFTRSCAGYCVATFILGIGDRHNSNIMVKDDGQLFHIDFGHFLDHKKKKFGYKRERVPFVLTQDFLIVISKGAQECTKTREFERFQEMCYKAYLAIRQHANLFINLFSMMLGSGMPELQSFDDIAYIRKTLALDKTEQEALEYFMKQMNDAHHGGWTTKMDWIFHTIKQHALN
Sequence of PI3Kα (P27986 whole entry partner): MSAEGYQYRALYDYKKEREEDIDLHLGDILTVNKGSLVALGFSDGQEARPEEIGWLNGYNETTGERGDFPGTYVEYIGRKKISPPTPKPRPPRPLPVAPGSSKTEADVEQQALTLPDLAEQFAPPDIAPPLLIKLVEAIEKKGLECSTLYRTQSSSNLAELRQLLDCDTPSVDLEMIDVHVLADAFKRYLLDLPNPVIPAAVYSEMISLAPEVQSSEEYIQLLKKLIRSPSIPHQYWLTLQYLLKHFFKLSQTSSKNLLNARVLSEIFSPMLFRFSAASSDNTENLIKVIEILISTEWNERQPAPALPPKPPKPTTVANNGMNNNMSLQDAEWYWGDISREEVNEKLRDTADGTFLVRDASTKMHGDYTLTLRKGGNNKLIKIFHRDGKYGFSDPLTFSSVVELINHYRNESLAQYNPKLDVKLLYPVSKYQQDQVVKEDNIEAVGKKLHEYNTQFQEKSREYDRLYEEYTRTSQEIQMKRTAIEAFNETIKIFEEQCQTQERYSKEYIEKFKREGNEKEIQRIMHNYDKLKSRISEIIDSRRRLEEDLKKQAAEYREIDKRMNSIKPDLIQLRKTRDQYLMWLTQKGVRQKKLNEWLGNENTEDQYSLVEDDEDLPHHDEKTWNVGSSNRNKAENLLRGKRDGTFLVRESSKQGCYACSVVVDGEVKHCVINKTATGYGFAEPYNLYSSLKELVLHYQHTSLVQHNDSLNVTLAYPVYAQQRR

[8] = system: HDAC; design: method as in earlier work; details: cited from earlier work
[9] = system: MCF‐10A cells; experiment: Cell viability in nontransformed cell line MCF-10A; format: cell-based; details: Homo sapiens
Excerpt: Thus, further optimization will be required to improve the therapeutic index.
FIGURE 5 Dose‐dependent effects of compound treatment (5b and 5f) on nontransformed breast cell viability across MCF‐10A.

[10] = system: HDAC9; design: method as in PMID 22693356; details: cited from earlier work
[11] = system: HDAC5; design: method as in PMID 22693356; details: cited from earlier work
[12] = system: HDAC2; design: method as in PMID 22693356; details: cited from earlier work

SMILES | IC50 [1] | IC50 [2] | IC50 [3] | other results
O=C(NO)c1ccc(/C=N/NC(=O)c2cc(N3CCOCC3)nc(-c3cccc(O)c3)n2)cc1 [LASSBio-2208] | – | – | – | IC50 [4]: > 3 µM; IC50 [5]: > 3 µM; stability of the NAH motif [6]: acid‐labile
CNc1ccc(-c2nc(N3CCOCC3)c3sc(CN(C)c4ncc(C(=O)NO)cn4)cc3n2)cn1 [Ifupinostat, ifupinostat] | – | – | – | IC50 [7]: < 0.1 µM; IC50 [8]: 0.1 to 1 µM

The remaining molecules from weak to strong by IC50 [1], led by results:

IC50 [1] | IC50 [2] | IC50 [3] | SMILES | other results
15.6 ± 6.48 µM | 8.84 ± 3.47 µM | 10.4 µM | Nc1ncc(-c2nc(NCc3ccc(C(=O)NO)cc3)nc(N3CCOCC3)n2)cn1 [Compound 5e, 4‐(((4‐(2‐Aminopyrimidin‐5‐yl)‐6‐Morpholino‐1,3,5‐Triazin‐2‐yl)Amino)Methyl)‐N‐Hydroxybenzamide] | –
10.5 µM | 10 µM | 9.43 µM | O=C(NO)c1ccc(CNc2nc(-c3cccnc3)nc(N3CCOCC3)n2)cc1 [Compound 5c, N‐Hydroxy‐4‐(((4‐Morpholino‐6‐(pyridin‐3‐yl)−1,3,5‐Triazin‐2‐yl)Amino)Methyl)Benzamide] | –
8.97 ± 2.64 µM | 10.3 ± 3 µM | 13.1 ± 6.08 µM | Nc1ccc(-c2nc(NCc3ccc(C(=O)NO)cc3)nc(N3CCOCC3)n2)cn1 [Compound 5d, 4‐(((4‐(6‐Aminopyridin‐3‐yl)‐6‐Morpholino‐1,3,5‐Triazin‐2‐yl)Amino)Methyl)‐N‐Hydroxybenzamide] | –
8.58 ± 0.14 µM | 10.9 µM | 5.8 ± 0.6 µM | O=C(NO)c1ccc(CNc2nc(-c3ccccc3)nc(N3CCOCC3)n2)cc1 [Compound 5a, N‐Hydroxy‐4‐(((4‐Morpholino‐6‐Phenyl‐1,3,5‐Triazin‐2‐yl)Amino)Methyl)Benzamide] | –
